This data set in a line: Thermo Scientific Acclaim RSLC 120 C18, 100 × 2.1 mm, 2.2 µm, 30 °C; A: 90% water + 10% methanol + 0.01% formic acid + 5 mM ammonium formate; B: methanol + 0.01% formic acid + 5 mM ammonium formate; gradient (min/%B) 0.1/1 3/39 14/99.9 16/99.9. Conditions: stereoisomer not certain.
Take `COc1cc(OC)nc(NC(=O)NS(=O)(=O)c2cc(NC=O)ccc2C(=O)N(C)C)n1`: the LC retention time worked out at 7.54 min.
Turning to `CCCCN(CCCC)CCCC`, the LC retention time was determined as 5.28 min.
In the case of `CN1CCC23c4c5ccc(O)c4OC2C(=O)CCC3C1C5` (stereo not given), the LC retention time turned out to be 2.91 min.
With `CC(=O)OCC(=O)C1(O)CCC2C3CCC4=CC(=O)CCC4(C)C3C(O)CC21C` (stereo not given) the figure was 8.8 min; with `CCc1c(C)[nH]c2c1C(=O)C(CN1CCOCC1)CC2` (stereo not given), 4.89 min.
With `C#CC1(O)CCC2C3CCC4=CC(=O)CCC4C3CCC21C` (stereo not given) the figure was 9.15 min; with `NC(N)=NCC1COc2ccccc2O1` (stereo not given), 4.57 min.
Take `CN1CCC(=C2c3ccccc3C=Cc3ccccc32)CC1`: the LC retention time was found to be 7.89 min.
With `CC(C)OC(=O)Nc1ccc2nc(-c3cscn3)[nH]c2c1` the figure was 7.66 min; with `CCC1OC(=O)C(C)C(OC2CC(C)(OC)C(O)C(C)O2)C(C)C(OC2OC(C)CC(N(C)C)C2O)C(C)(O)CC(C)CN(C)C(C)C(O)C1(C)O` (stereo not given), 5.98 min.
`CCOP(=O)(SC(C)CC)SC(C)CC` (stereo not given): the LC retention time worked out at 11.5 min.
With `CCCOP(=S)(OCCC)OP(=S)(OCCC)OCCC` the figure was 12.9 min; with `CC(C)NCC(O)COc1ccc(CC(=O)O)cc1` (stereo not given), 3.93 min; with `COCCCOc1ccnc(CS(=O)c2nc3ccccc3[nH]2)c1C` (stereo not given), 7.52 min.
With `CC(=O)OC1C=CC2C3Cc4ccc(O)c5c4C2(CCN3C)C1O5` (stereo not given) the figure was 3.75 min; with `C[N+](C)([O-])CCC(c1ccccc1)c1ccccn1` (stereo not given), 5.39 min.
`Cc1ccc(C(=O)c2cn(CCCCCO)c3ccccc23)c2ccccc12`: the LC retention time stood at 10.6 min.
For `CC(=O)Nc1ccc(S(=O)(=O)Nc2nccs2)cc1` the value was 4.24 min; for `Cn1c([N+](=O)[O-])cnc1COC(N)=O`, 3.55 min.
In the case of `O=P(Oc1ccccc1)(Oc1ccccc1)Oc1ccccc1`, the LC retention time amounted to 11 min.
`CC(C)(C)NCC(O)COc1ccc(NC(=O)NC2CCCCC2)cc1` (stereo not given): the LC retention time is 6.58 min.
Consider `CN1CCCCC1Cn1cc(C(=O)C23CC4CC(CC(C4)C2)C3)c2ccccc21` (stereo not given), for which the LC retention time is 9.94 min.
On to `Cc1ccc(C(CCN(C)C)c2ccccc2)cc1` (stereo not given), for which the LC retention time came out at 7.47 min.
Turning to `COc1cccc(C(=O)NN(C(=O)c2cc(C)cc(C)c2)C(C)(C)C)c1C`, the LC retention time is 9.56 min.
For `COCC(C)N(C(=O)CS(=O)(=O)O)c1c(C)csc1C` (stereo not given) the value was 6.28 min; for `CC(C)CCOc1ccc(NC(=S)Nc2ccc(OCCC(C)C)cc2)cc1`, 13 min.
With `CCc1cnc(C2=NC(C)(C(C)C)C(=O)N2)c(C(=O)O)c1` (stereo not given) the figure was 5.6 min; with `CC12CCC(=O)C=C1CCC1C2CCC2(C)C1CCC2(C)O` (stereo not given), 10.4 min.
Take `CC=CC(=O)Oc1c(C(C)CCCCCC)cc([N+](=O)[O-])cc1[N+](=O)[O-]` (stereo not given): the LC retention time came out at 13.1 min.
For `COc1ccc2c3c1OC1C(=O)CCC4C(C2)N(C)CCC314` (stereo not given) the value was 3.69 min; for `CC(Cc1ccccc1)NCCC#N` (stereo not given), 4.14 min.
For `CCC(C)OC(=O)N1CCCCC1CCO` (stereo not given) the value was 8.83 min.
For `CNC(=O)Oc1cc(C)c(S(C)(=O)=O)c(C)c1`, the LC retention time came out at 5.28 min.
With `CC(CN(C)C)CN1c2ccccc2S(=O)(=O)c2ccccc21` (stereo not given) the figure was 5.34 min.
With `COCCCNc1nc(NC(C)C)nc(SC)n1` the figure was 9.14 min.
Consider `CCOP(=S)(OCC)Oc1ccc(=O)n(-c2ccccc2)n1`, for which the LC retention time was determined as 9.79 min.
Take `CCC1CN2CCC3(O)C(=Nc4cccc(OC)c43)C2CC1C(=COC)C(=O)OC` (stereo not given): the LC retention time was found to be 5.95 min.
On to `N#Cc1ccc2c(c1)N(CCCN1CCC(O)CC1)c1ccccc1S2`, for which the LC retention time is 7.45 min.
For `CCN(CC)CCOCCOC(=O)C(CC)(CC)c1ccccc1` the value was 8.04 min; for `CCCC(C(=O)c1ccc2c(c1)OCO2)N1CCCC1` (stereo not given), 5.18 min; for `CC12CCC(=O)C=C1CCC1C2C(O)CC2(C)C(C(=O)CO)CCC12` (stereo not given), 8.74 min.
With `CC(CCc1ccc(O)cc1)NCCc1ccc(O)c(O)c1` (stereo not given) the figure was 4.21 min; with `CCCN(CCC)C(=O)SCc1ccccc1`, 11.9 min.
With `Cc1ccc(C(=O)c2ccc(CC(=O)O)n2C)cc1` the figure was 7.89 min; with `Cc1cccc2sc3nncn3c12`, 5.93 min; with `COP(=S)(OC)Oc1ccc(S(C)=O)c(C)c1` (stereo not given), 7.28 min.
As to `c1ccc2c(c1)Cc1cccnc1N1CCNCC21` (stereo not given), the LC retention time amounted to 5.31 min.
With `CN(C)CCc1ccc(O)cc1` the figure was 2.28 min; with `Cc1ccsc1C=CC1=NCCCN1C`, 4.36 min; with `COCC(NC(C)=O)C(=O)NCc1ccccc1` (stereo not given), 5.09 min.
For the compound `CCC(=C(c1ccccc1)c1ccc(OCCN(C)C)cc1)c1ccccc1`, the LC retention time was determined as 11 min.
With `COc1ccc(CCN(C)CCCC(C#N)(c2ccc(OC)c(OC)c2)C(C)C)cc1OC` (stereo not given) the figure was 7.03 min.
For `NCC1CCCCC1(O)c1cccc(O)c1` (stereo not given) the value was 4.36 min; for `CCNC1(c2cccc(OC)c2)CCCCC1=O` (stereo not given), 4.93 min.
With `CCOC(=O)C1(c2ccccc2)CCN(C)CC1` the figure was 5.28 min; with `CCOC(=O)C1(c2ccccc2)CCC=CC1N(C)C` (stereo not given), 5.1 min; with `c1cc2c(c(NC3=NCCN3)c1)CCC2`, 4.76 min.
`CCCc1nc2c(C)cc(-c3nc4ccccc4n3C)cc2n1Cc1ccc(-c2ccccc2C(=O)O)cc1`: the LC retention time stood at 10.3 min.
Regarding `CCCCCC(=O)c1ccc(O)cc1O`, the LC retention time was 10.4 min.
For `C1=Cc2ccccc2Nc2ccccc21`, the LC retention time is 10.1 min.
Regarding `CCN(CC)C(=O)C1C=C2c3cccc4[nH]cc(c34)CC2NC1` (stereo not given), the LC retention time came to 5.56 min.
For `CNCC(C)CN1c2ccccc2CCc2ccccc21` (stereo not given) the value was 8.49 min.
For `CC(O)C1C(=O)N2C(C(=O)O)=C(SC3CNC(C(=O)N(C)C)C3)C(C)C12` (stereo not given) the value was 10.6 min; for `CC(C)(C)NCC(O)COc1cccc2c1CC(O)C(O)C2` (stereo not given), 4.29 min.
Take `CC(CN(C)C)CN1c2ccccc2Sc2ccc(C#N)cc21` (stereo not given): the LC retention time stood at 7.52 min.
For `CCc1nnc(NS(=O)(=O)c2ccc(N)cc2)s1` the value was 4.81 min.
Regarding `CNCC(C)CN1c2ccccc2Sc2ccc(OC)cc21` (stereo not given), the LC retention time worked out at 8.33 min.
For `O=C1c2ccccc2C(=O)C1C(=O)C(c1ccccc1)c1ccccc1` the value was 8.6 min; for `CCC(C)Nc1c([N+](=O)[O-])cc(C(C)(C)C)cc1[N+](=O)[O-]` (stereo not given), 13 min.
`CCC1CN2CCc3c([nH]c4cccc(OC)c34)C2CC1C(=COC)C(=O)OC` (stereo not given): the LC retention time worked out at 6.23 min.
As to `NS(=O)(=O)Cc1noc2ccccc12`, the LC retention time turned out to be 4.53 min.
For `CC(N)C12CC3CC(CC(C3)C1)C2` (stereo not given) the value was 6.71 min; for `COc1ccc2c3c1OC1C(O)CCC4C(C2)N(C)CCC341` (stereo not given), 3.36 min.
For `N#Cc1ccc(C(c2ccc(C#N)cc2)n2cncn2)cc1` the value was 6.33 min; for `CC(CC(C#N)(c1ccccc1)C(C)C)N(C)C` (stereo not given), 5.96 min.
Take `CCCN(CCC)c1c([N+](=O)[O-])cc(S(N)(=O)=O)cc1[N+](=O)[O-]`: the LC retention time is 10.3 min.
Turning to `CCC(N)Cc1ccc2c(c1)OCO2` (stereo not given), the LC retention time is 4.73 min.
For `Nc1ccc(S(=O)(=O)c2ccc(N)cc2)cc1` the value was 4.13 min; for `COC(=O)C(c1ccccc1)C1CCCCN1` (stereo not given), 4.96 min.
For the compound `CCC1C(=O)OCC1Cc1cncn1C` (stereo not given), the LC retention time worked out at 2.74 min.
`CCCNC1CCc2nc(N)sc2C1` (stereo not given): the LC retention time worked out at 2.64 min.
`NCC(O)c1cccc(O)c1` (stereo not given): the LC retention time is 1.81 min.
Regarding `Nc1ccc(S(=O)(=O)NC(=O)c2ccccc2)cc1`, the LC retention time was 4.72 min.
As to `Cc1cc2c(OCC(O)CNC(C)C)cccc2[nH]1` (stereo not given), the LC retention time was determined as 4.44 min.
With `CCCC(C(=O)OCCN(CC)CC)(c1ccccc1)c1ccccc1` the figure was 9.41 min; with `Cn1c(=O)c2c(ncn2CCCNCC(O)c2cc(O)cc(O)c2)n(C)c1=O` (stereo not given), 3.56 min.
With `CCNCC(=O)Nc1c(C)cccc1C` the figure was 4.33 min; with `C=C(C)C1Cc2c(ccc3c2OC2COc4cc(OC)c(OC)cc4C2C3=O)O1` (stereo not given), 10.5 min.
For `COC(=O)Nc1nc2ccccc2[nH]1` the value was 5.46 min; for `Cc1cn(C2CC(N=[N+]=[N-])C(CO)O2)c(=O)[nH]c1=O` (stereo not given), 4.56 min; for `CC(=O)Nc1c(C)n(C)n(-c2ccccc2)c1=O`, 3.94 min.
Consider `CN1C(=O)CC(C)(c2ccccc2)C1=O` (stereo not given), for which the LC retention time was found to be 6.71 min.
On to `CN(C)C(=O)Oc1cc(OC(=O)N(C)C)cc(C(O)CNC(C)(C)C)c1` (stereo not given), for which the LC retention time is 5.16 min.
For `COP(=O)(OC)OC(C)=CC(=O)N(C)C` the value was 4.5 min; for `CCN1CCCC1CNC(=O)c1cc(S(N)(=O)=O)ccc1O` (stereo not given), 3.18 min.
For `Cc1cc2n[nH]nc2cc1C` the value was 6.76 min; for `CCCc1cc(OC)c(CCN)cc1OC`, 7.46 min.
With `CCCC(NC)C(=O)c1ccccc1` (stereo not given) the figure was 4.89 min; with `C=CC(N)CCC(=O)O` (stereo not given), 1.38 min; with `CN(C)CCOc1ccccc1Cc1ccccc1`, 7.29 min.

The record behind these values is the RepoRT retention time repository (doi:10.1016/j.jhazmat.2019.121712).
